Measurements from ChEMBL document CHEMBL1140011, “Discovery of cyclopentane- and cyclohexane-trans-1,3-diamines as potent melanin-concentrating hormone receptor 1 antagonists” (Bioorg Med Chem Lett, 2007).

Legend:
[1] = molecular target: T1, Melanin-concentrating hormone receptor 1 (Homo sapiens, UniProt Q99705); test: Displacement of [125I]MCH from human MCHR1 expressed in HEK293 cells; assay type: cell-based
[2] = molecular target: T1, Melanin-concentrating hormone receptor 1; test: Antagonist activity at human MCHR1 expressed in HEK293 cells assessed as [35S]GTP-gamma-S accumulation; assay type: functional, cell-based
[3] = Metabolic stability assessed as intrinsic clearance in human liver microsomes; assay type: ADME, Microsome
[4] = Clearance in C57BL/6J mouse at 20 umol/kg, iv and 20 umol/kg, po; assay type: ADME, organism-based; conditions: in vivo
[5] = Volume of distribution at steady state in C57BL/6J mouse at 20 umol/kg, iv and 20 umol/kg, po; assay type: ADME, organism-based; conditions: in vivo, read-out: Vdss
[6] = Oral bioavailability in C57BL/6J mouse at 20 umol/kg; assay type: ADME, organism-based; conditions: in vivo
[7] = Half life in C57BL/6J mouse plasma at 20 umol/kg, iv and 20 umol/kg, po; assay type: ADME, organism-based
[8] = test system: Mus musculus; test: Cmax in C57BL/6J mouse brain at 20 umol/kg, iv and 20 umol/kg, po; assay type: ADME, organism-based; conditions: in vivo
[9] = Tmax in C57BL/6J mouse brain at 20 umol/kg, iv and 20 umol/kg, po; assay type: ADME, organism-based
[10] = Cmax in C57BL/6J mouse plasma at 20 umol/kg, iv and 20 umol/kg, po; assay type: ADME, organism-based
[11] = Tmax in C57BL/6J mouse plasma at 20 umol/kg, iv and 20 umol/kg, po; assay type: ADME, organism-based
[12] = Ratio of Cmax in brain to plasma in C57BL/6J mouse at 20 umol/kg, iv and 20 umol/kg, po; assay type: ADME, organism-based; conditions: read-out: BPR
[13] = Fraction unbound in C57BL/6J mouse plasma; assay type: ADME, cell-free

T1 sequence (Q99705 whole entry): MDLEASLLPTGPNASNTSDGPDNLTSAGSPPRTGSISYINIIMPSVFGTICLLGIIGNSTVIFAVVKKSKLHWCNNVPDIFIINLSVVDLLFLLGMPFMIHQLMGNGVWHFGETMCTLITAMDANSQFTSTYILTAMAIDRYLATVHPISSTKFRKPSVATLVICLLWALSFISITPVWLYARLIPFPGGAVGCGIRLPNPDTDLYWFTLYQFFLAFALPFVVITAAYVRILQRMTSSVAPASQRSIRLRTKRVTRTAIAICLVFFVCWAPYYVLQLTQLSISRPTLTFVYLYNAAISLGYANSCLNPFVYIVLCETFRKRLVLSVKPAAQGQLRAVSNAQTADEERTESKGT

Row | Compound | IC50 [1] [µM] | microsomal CLint [3] [µL/min/mg] | other results
1 | COc1ccc2c(C)cc(N[C@H]3CC[C@H](NCc4cn(C)c5cc(C#N)ccc45)C3)nc2c1 | 0.033 | < 12 | IC50 [2]: 0.118 µM
2 | COc1ccc2c(C)cc(N[C@H]3CC[C@H](NCc4cn(C)c5c(C#N)cccc45)C3)nc2c1 | 0.02 | < 12 | IC50 [2]: 0.127 µM
3 | COc1ccc2nc(N[C@H]3CCC[C@H](NCc4ccsc4)C3)c(C)cc2c1 | 1.39 |  | 
4 | COc1cc(N[C@H]2CCC[C@H](NCc3ccsc3)C2)nc2ccccc12 | 0.009 |  | IC50 [2]: 0.008 µM
5 | COc1ccc2c(C)cc(N[C@H]3CCC[C@H](NCc4cnccn4)C3)nc2c1 | 0.089 |  | 
6 | COc1ccc2c(C)cc(N[C@H]3CCC[C@H](NCc4ccc(Cl)c(Cl)c4)C3)nc2c1 | 0.013 | 59 | 
7 | COc1ccc2c(C)cc(N[C@H]3CCC[C@H](NCc4cccc(OC(F)(F)F)c4)C3)nc2c1 | 0.015 | 64 | 
8 | COc1ccc2nc(N[C@@H]3CCC[C@@H](NCc4ccsc4)C3)cc(C)c2c1 | 0.411 |  | 
9 | COc1ccc(Br)c(CN[C@H]2CCC[C@H](Nc3cc(C)c4ccc(OC)cc4n3)C2)c1 | 0.028 |  | 
10 | COc1ccc2c(C)cc(N[C@H]3CCC[C@H](NCc4cccc5nsnc45)C3)nc2c1 | 0.01 |  | 
11 | COc1ccc2nc(N[C@H]3CC[C@H](NCc4ccsc4)C3)cc(C)c2c1 | 0.062 |  | 
12 | COc1ccc2nc(N[C@@H]3C[C@@H]4C[C@H]3[C@H](NCc3ccsc3)C4)cc(C)c2c1 | 5.01 |  | 
13 | COc1ccc2c(C)cc(N[C@H]3CCC[C@H](NCc4cncc5ccccc45)C3)nc2c1 | 0.022 | 500 | 
14 | COc1ccc2nc(NCCCNC(=O)c3ccsc3)cc(C)c2c1 | 0.106 |  | 
15 | COc1ccc2nc(N(C)[C@H]3CC[C@H](NCc4ccsc4)C3)cc(C)c2c1 | 2.3 |  | 
16 | CC(=O)N(C)c1ccc2nc(N[C@H]3CCC[C@H](NCc4ccsc4)C3)ccc2c1 | 2.52 |  | 
17 | COc1ccc2nc(N3CCC(NCc4ccsc4)CC3)cc(C)c2c1 | 2.13 |  | 
18 | c1ccc2nc(N[C@H]3CCC[C@H](NCc4ccsc4)C3)ccc2c1 | 0.068 |  | IC50 [2]: 0.234 µM
19 | COc1ccc2c(C)cc(N[C@H]3CC[C@H](NCc4cn(C)c5cccnc45)C3)nc2c1 | 0.029 | 20 | IC50 [2]: 0.083 µM; clearance [4]: 15 mL/min/kg; Vd [5]: 7.6 L/kg; bioavailability [6]: 100%; half-life [7]: 8.6 h; Cmax [8]: 0.5 µmol/kg; Tmax [9]: 0.26 h; Cmax [10]: 3.78 µM; Tmax [11]: 24 h; Kp [12]: 0.13; fraction unbound [13]: 0.065
20 | COc1ccc2c(C)cc(N[C@H]3CC[C@H](NCc4cn(C)c5ccc(C#N)cc45)C3)nc2c1 | 0.039 | < 12 | 
21 | COc1ccc2c(C)cc(N[C@H]3CCC[C@H](NCc4ccc(S(C)(=O)=O)cc4Cl)C3)nc2c1 | 0.05 | 269 | 
22 | COc1cc(N[C@H]2CCC[C@H](NCc3ccsc3)C2)nc2ccc(F)cc12 |  |  | IC50 [2]: 0.09 µM
23 | Clc1cccc2ccc(N[C@H]3CCC[C@H](NCc4ccsc4)C3)nc12 | 5.1 | 15 | 
24 | COc1ccc2c(C)cc(N[C@H]3CC[C@H](NCc4cn(C)c5ccc(OC(F)F)cc45)C3)nc2c1 | 0.005 | 12 | IC50 [2]: 0.035 µM
25 | COc1ccc2nc(NCC3CCCN(Cc4ccsc4)C3)cc(C)c2c1 (stereo not drawn) | 2.99 |  | 
26 | Cc1cc(N[C@H]2CCC[C@H](NCc3ccsc3)C2)nc2ccccc12 | 0.007 | 60 | IC50 [2]: 0.059 µM
27 | COc1ccc2nc(NCCCNCc3ccsc3)cc(C)c2c1 | 0.015 |  | 
28 | COc1ccc2c(C)cc(N[C@H]3CCC[C@H](NCc4cn(C)c5ccc(Br)cc45)C3)nc2c1 | 0.061 | 41 | 
29 | COc1ccc2nc(N[C@H]3CCC[C@H](NCc4ccsc4)C3)cc(C)c2c1 | 0.003 |  | 
30 | COc1ccc2c(C)cc(N[C@H]3CCC[C@H](NCc4cn(C)nc4C)C3)nc2c1 | 0.178 |  | 

The next lines start with results.

Row | IC50 [1] [µM] | microsomal CLint [3] [µL/min/mg] | Compound | other results
31 | 0.054 | 38 | COc1cccc2nc(N[C@H]3CCC[C@H](NCc4ccsc4)C3)ccc12 | IC50 [2]: 0.042 µM
32 | 0.058 | 52 | COc1ccc2c(C)cc(N[C@H]3CCC[C@H](NCc4cn(C(=O)N(C)C)c5ccc(Cl)cc45)C3)nc2c1 | 
33 | 0.016 | 227 | COc1ccc2c(C)cc(N[C@H]3CCC[C@H](NCc4ccc5nsnc5c4)C3)nc2c1 | 
34 | 3.59 |  | COc1ccc2nc(NCCNCc3ccsc3)cc(C)c2c1 | 
35 | 0.231 |  | COc1cc(N[C@H]2CCC[C@H](NCc3ccsc3)C2)nc2ccc(OC(C)C)cc12 | 
36 | > 33 |  | COc1ccc2nc(NCCCCNCc3ccsc3)cc(C)c2c1 | 
37 | 0.0001 | 32 | COc1ccc2c(C)cc(N[C@H]3CCC[C@H](NCc4ccsc4)C3)nc2c1 | IC50 [2]: 0.001 µM
38 | 0.369 |  | COc1ccc2nc(N[C@H]3C[C@H]4C[C@@H]3[C@@H](NCc3ccsc3)C4)cc(C)c2c1 | 
39 | 0.057 | 295 | COc1ccc2nc(N[C@H]3CCC[C@H](NCc4ccsc4)C3)ccc2c1 | IC50 [2]: 0.025 µM
40 | 0.571 |  | Clc1ccc2nc(N[C@H]3CCC[C@H](NCc4ccsc4)C3)ccc2c1 | 
41 | 0.847 |  | CN(C)c1ccc2nc(N[C@H]3CCC[C@H](NCc4ccsc4)C3)ccc2c1 | 
42 | 0.119 |  | COc1ccc2nc(N[C@H]3CC[C@H](N(C)Cc4ccsc4)C3)cc(C)c2c1 | 
43 | 0.009 | < 12 | COc1ccc2c(C)cc(N[C@H]3CC[C@H](NCc4cn(C)c5ccccc45)C3)nc2c1 | IC50 [2]: 0.085 µM
44 | 0.071 | 12 | COc1ccc2c(C)cc(N[C@H]3CC[C@H](NCc4cn(C)c5c4ccc4cccnc45)C3)nc2c1 | 
45 | 0.035 |  | COc1ccc2nc(N[C@H]3C[C@@H]4C[C@H]3[C@@H](NCc3ccsc3)C4)cc(C)c2c1 | 
46 | 0.029 | 30 | CN(C)c1cc(N[C@H]2CCC[C@H](NCc3ccsc3)C2)nc2ccccc12 | IC50 [2]: 0.097 µM
47 | 9.92 |  | N#Cc1cc(N[C@H]2CCC[C@H](NCc3ccsc3)C2)nc2ccccc12 | 
48 | 0.08 | 26 | COc1ccc2c(C)cc(N[C@H]3CC[C@H](NCc4cn(C)c5ccc(OCc6ccccc6)cc45)C3)nc2c1 | 
49 | 4.8 | 68 | FC(F)(F)c1cc(N[C@H]2CCC[C@H](NCc3ccsc3)C2)nc2ccccc12 | 
